Assay results as given in US20130150399A1, “INHIBITORS OF THE UNFOLDED PROTEIN RESPONSE AND METHODS FOR THEIR USE” (The Board of Trustees of the Leland Stanford Junior …, priority 2006, published 2013).

Columns and labels:
ATF6 = assay: Western blot of ATF6 cleavage, hypoxic HT1080 cells; type: cell-based, human; settings: 2.5 μM
Experimental: Cells (2×10^6) were cultured in 10-cm dishes, collected using a cell scraper at 4° C., and lysed by addition of 150 μl cell lysis buffer [50 mM Tris pH 7.4, 150 mM NaCl, 10% glycerol, 0.5% Triton X-100. 0.5% NP-40, 2 mM Na3VO4, 20 mM beta-glycerophosphate, 10 mM NaF, 1 mM DTT, 1 mM PMSF). Lysates were centrifuged for 5 min at 10,000×g, and proteins (˜40 μg) were resolved by SDS-PAGE followed by semi-dry transfer to nitrocellulose membranes. Membranes were blocked in TBS-5% milk supplemented with 0.1% Tween-20. The blots were then probed overnight with relevant antibodies, washed, and incubated for 2 hours with species-specific secondary antibodies conjugated to horseradish peroxidase. After washing in block solution, immunoreactive material was detected by enhanced chemiluminescence (SuperSignal West Dura Extended, Pierce, Inc., Rockville, Ill.).
A. Effect of irestatin 9389 on PERK and ATF6 pathways. […] Protein lysates were analyzed by Western blot analysis using antisera specific for ATF6 (top), CHOP/GADD153 (middle) or actin (bottom). […] Cells were harvested, counted, and allowed to grow under normal culture conditions for 11-12 days. […] D. Quantification of clonogenic survival assay. […] F. Quantification of TUNEL-positive cells. […] Cells were harvested at the indicated times and counted by hemocytometer. Values represent the mean calculated from triplicate experiments+/−SEM. […]

HT1080 cells = assay: Clonogenic survival (colony formation) assay, HT1080; type: cell-based, human
Experimental: Several of the candidate irestatins were tested in a hypoxia clonogenic survival assay. […] HT1080 fibrosarcoma cells stably were treated with 1 uM of the indicated irestatin or left untreated, and incubated in hypoxia (0.01% oxygen) for 48 hrs at 37° C. Cells were harvested and counted, and allowed to form colonies under normal oxygen tension. Survival rate is expressed as the fraction of colonies formed divided by the total number of cells seeded for each condition. For all experiments, cells were plated in triplicate, and all experiments were repeated at least three times. These experiments were repeated using MiaPaCa2 cells in place of the HT1080 fibrosarcoma cells.
For hypoxia survival assays, cells were grown in 60 mm dishes until reaching at 50-70% confluence and shifted to hypoxia (0.1% O2) for 48 hrs. Cells were trypsinized, counted using a hemocytometer, and replated in triplicate at 1,000-20,000 cells per plate in normal culture medium. After 10-12 days of growth under normal oxygen conditions, colonies were stained with 0.2% crystal violet in ethanol and counted. Survival values are expressed as the number of colonies divided by the total number of cells seeded for each condition, normalized to the plating efficiency under normal oxygen conditions. At least three independent experiments were performed.
A. Effect of irestatin 9389 on PERK and ATF6 pathways. HT1080 cells were treated with vehicle alone (lanes 1-4) or 2.5 μM irestatin 9389 (lanes 5-8) and cultured under aerobic conditions for 18 hours (N) or shifted to hypoxia for the indicated times. Protein lysates were analyzed by Western blot analysis using antisera specific for ATF6 (top), CHOP/GADD153 (middle) or actin (bottom). […] Cells were harvested, counted, and allowed to grow under normal culture conditions for 11-12 days. […] D. Quantification of clonogenic survival assay. […] F. Quantification of TUNEL-positive cells. […] Cells were harvested at the indicated times and counted by hemocytometer. Values represent the mean calculated from triplicate experiments+/−SEM.

Cc1csc(NC(=O)CSc2nc3c(c(C(F)(F)F)c2C#N)CCC3)n1 [Compound 9389]
proteolytic cleavage of ATF6 into active 50 kDa form (ATF6): significantly increased the proteolytic cleavage of ATF6 | colony formation (HT1080 cells; 2.5 μM, hypoxia for 48 hours): strongly inhibited colony formation | survival of HT1080 cells (colony formation) (HT1080 cells; 2.5 μM, normal oxygen conditions): negligible effect on the survival | decrease in the rate of colony formation (HT1080 cells; exposure during hours 40-48 of hypoxia, data not shown): 8 fold
